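Five compound concentrations were applied to cells in 96-well plates for 48 hours; endpoints were derived by simple linear interpolation of the resulting dose-response curve. GI50 marks 50% less growth. The concentration for full growth arrest is given as TGI.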
Legend:
Assay in all cases: NCI tumour cell line growth inhibition, 48 h
A498 renal = system: A498 renal
HCT-116 colon = system: HCT-116 colon
M14 melanoma = system: M14 melanoma
MOLT-4 leukemia = system: MOLT-4 leukemia
NCI-H460 lung = system: NCI-H460 lung
OVCAR-5 ovarian = system: OVCAR-5 ovarian
PC-3 prostate = system: PC-3 prostate
RXF 393 renal = system: RXF 393 renal
UACC-62 melanoma = system: UACC-62 melanoma
UO-31 renal = system: UO-31 renal

Row | SMILES | GI50 (A498 renal) | TGI (A498 renal) | GI50 (HCT-116 colon) | TGI (HCT-116 colon) | GI50 (M14 melanoma) | TGI (M14 melanoma) | GI50 (MOLT-4 leukemia) | TGI (MOLT-4 leukemia) | GI50 (NCI-H460 lung) | TGI (NCI-H460 lung) | GI50 (OVCAR-5 ovarian) | TGI (OVCAR-5 ovarian) | GI50 (PC-3 prostate) | TGI (PC-3 prostate) | GI50 (RXF 393 renal) | TGI (RXF 393 renal) | GI50 (UACC-62 melanoma) | TGI (UACC-62 melanoma) | GI50 (UO-31 renal) | TGI (UO-31 renal)
1 | Cc1cccc2c(=O)c3c(sc12)c(NCCN)nc1ccccc13 | 2.72 µM | 6.92 µM | 0.759 µM | 1.43 µM | 0.808 µM | 1.55 µM | 0.887 µM | 1.8 µM | 0.768 µM | 1.54 µM | 0.834 µM | 1.6 µM | 0.717 µM | 1.49 µM | 1.03 µM | 2.75 µM | 0.811 µM | 1.65 µM | 0.541 µM | 1.15 µM
2 | O=C1C=CC(=O)N1CCCCCCCCCCN1C(=O)C=CC1=O | 20 µM | 49.7 µM | 3.6 µM | 12.9 µM | 6.9 µM | 20 µM | 8.62 µM | 48.6 µM | 33.3 µM | > 100 µM | 17.4 µM | 31.6 µM | 18.1 µM | 36.5 µM | 3.13 µM | 11.3 µM | 14.8 µM | 28.2 µM | 4.92 µM | 19.6 µM
3 | Cc1cc(NC(=O)C(=O)Cc2nc3ccccc3s2)ccc1Cl |  | > 100 µM |  | > 100 µM |  | > 100 µM |  | > 100 µM |  | > 100 µM |  | > 100 µM |  | > 100 µM |  | > 100 µM |  | > 100 µM |  | > 100 µM
4 | N=C1N=Nc2nc(C3(c4nc5n(c4O)C(=N)N=N5)Cc4ccccc4C3=O)c(O)n21 (stereo not given) |  | > 43.9 µM |  | > 100 µM |  | > 100 µM |  | > 100 µM |  | > 100 µM |  | > 100 µM |  | > 100 µM |  | > 100 µM |  | > 100 µM |  | > 100 µM
5 | COc1ccc(-c2oncc2-c2cc(OC)c3c(c2)OCO3)cc1 | 1.49 µM | 7.4 µM | 3.28 µM | > 58.3 µM | 2.33 µM | > 69.6 µM | 3.9 µM | > 92.6 µM | 3.58 µM | > 100 µM | 5.14 µM | > 100 µM | 2.99 µM | > 66.1 µM | 2.9 µM | 20.3 µM | 2.85 µM | 57.7 µM | 4.46 µM | 55.9 µM
6 | COc1ccc(C2SC(C)C(=O)N2NC(=O)C(O)c2ccccc2)cc1 (stereo not given) | > 100 µM | > 100 µM | > 100 µM | > 100 µM | > 100 µM | > 100 µM | > 100 µM | > 100 µM | > 100 µM | > 100 µM | > 100 µM | > 100 µM | > 100 µM | > 100 µM | > 100 µM | > 100 µM | > 100 µM | > 100 µM | > 100 µM | > 100 µM
7 | NS(=O)(=O)c1ccc(NCc2cnc3ccccc3c2)cc1 |  | > 100 µM |  | > 100 µM |  | > 100 µM |  | > 100 µM |  | > 100 µM |  | > 100 µM |  | > 100 µM |  | > 100 µM |  | > 100 µM |  | > 100 µM

— PubChem BioAssay (NCI)
